These results are taken from US10662146B2, “Prodrugs of fencamfamine” (Praxis Bioresearch, LLC, priority 2015, dated 2020).

Data set [1] is described as follows: Single dose intravenous PK study in male Sprague Dawley rats (plasma by LC-MS/MS). The data set is classed as in vivo. The following applies: male, Sprague Dawley, rat; IV 2 mg/kg [equivalent to PRX-002 (−)], analyte: prodrug in plasma, mean; read-out: IV PK Parameters Tmax, Prodrug. The procedure: (§1) We describe here PK results of prodrugs of PRX-002 (−) or (+) isomers. All doses of prodrugs were administered such that they were equivalent to 5 mg/kg of PRX-002 (−) or (+) for oral studies and 2 mg/kg PRX-002 (−) or (+) for intravenous studies in male Sprague-Dawley (MSD) rats. Higher doses of up to 10 or 15 mg/kg [again equivalent to PRX-002 (−)] were used in some studies (as specified)]. Formulation preparation, dose administration and time of sample collection was as follows.
(§2) Adult male Sprague Dawley Rats aged 8-10 weeks were used for the study. Animals were administered the test item by Intravenous bolus route with a dose of 2 mg/kg body weight at dose volume of 5.0 mL/kg body weight. Under mild isoflurane anesthesia, blood specimens were collected by retro-orbital puncture method using capillary tubes into pre-labeled tubes containing anticoagulant (K2EDTA-2 mg/mL blood) during the next 24 hours of post dose as mentioned in below table. For blood sampling at multiple time points, right and left eyes were used alternatively for blood collection. Collected blood specimens were centrifuged at 4000 rpm, 4° C. for 10 minutes and plasma were separated and stored at −80° C. until analysis.
Blood was collected as outlined in Table 39.2 (IV).
Test item PRX-P4-003 was weighed and transferred to a graduated tube. Then 600 μL of PEG 400 (v/v) was added and vortex mixed thoroughly until the test item was completely dissolved. Then 1.800 mL of Hydroxypropyl-β-cyclodextrin (HPβCD, 50% w/v) was added and vortex mixed thoroughly. The final volume was then made up to 3.600 mL with sterile water for injection (SWFI, v/v) with final formulation strength of 5.16 mgA/mL. […] This formulation was freshly prepared before the administration to animals.
as §2, with “administered with a PRX-P4-003” for “administered the test item”, “of 10” for “of 2”, “of 5” for “of 5.0”
Test item PRX-P5-006 was weighed and transferred to a graduated tube. Then 500 μL of DMSO (v/v) was added vortex mixed thoroughly until the test item was completely dissolved. Then 4000 μL of Hydroxypropyl-β-cyclodextrin (HPβCD, 50% w/v) was added and vortex mixed thoroughly. Then 2500 μL of PEG 400 (v/v) was added and vortex mixed thoroughly. The final volume was then made up to 10000 μL with sterile water for injection (SWFI, v/v) with final formulation strength of 3.97 mg/mL. […] This formulation was freshly prepared before the administration to animals.
as §2, with “administered with a PRX-P5-006” for “administered the test item”, “of 15” for “of 2”, “of 10” for “of 5.0”
The plasma concentrations of fencamfamine were measured by LC-MS/MS over time. […] The release of fencamfamine from the prodrugs varied depending on the chain length of the fatty acid linkers attached to fencamfamine. […]

Data set [2] is described as follows: Single dose oral PK study in male Sprague Dawley rats (plasma by LC-MS/MS). It counts as in vivo. The following applies: mean; for AUC: read-out: Oral PK Parameters AUC, Prodrug. The method, then:
as §1
Test item was weighed [5 mg equivalent dose of PRX-002 for prodrugs] and transferred to a graduated tube. Then 10 μL of Tween 80 was added and vortexed mixed until the test item was completely mixed. Small volume of 0.5% (w/v) carboxymethylcellulose in water solution was then added dropwise with continuous vortex mixing until a uniform suspension was obtained. The final volume was then made up to 10 mL with 0.5% (w/v) carboxymethylcellulose in water with final strength of 0.5 mg/mL. […] This formulation was freshly prepared before the administration to animals.
as §2, with “study. Fasted animals” for “study. Animals”, “administered” for “administered the”, “by oral” for “by Intravenous bolus”, “of 5” for “of 2”, “of 10” for “of 5.0”
Blood was collected as outlined in Table 39.1 (oral).
Test item PRX-P4-003 was weighed and transferred to a graduated tube. Then 12.42 μL of Tween 80 was added and vortexed mixed until the test item was completely mixed. Small volume of 0.5% (w/v) Carboxymethylcellulose in water solution was then added dropwise with continuous vortex mixing until a uniform suspension was obtained. The final volume was then made up to 12.42 mL with 0.5% (w/v) Carboxymethylcellulose in water with final strength of 1.0 mgA/mL. […] This formulation was freshly prepared before the administration to animals.
as §2, with “study. Fasted animals” for “study. Animals”, “administered with a PRX-P4-003” for “administered the test item”, “by oral” for “by Intravenous bolus”, “of 10” for “of 2”, “of 10” for “of 5.0”
Test item PRX-P5-006 was weighed and transferred to a graduated tube. Then 10 μL of Tween 80 was added and vortexed mixed until the test item was completely mixed. Small volume of 0.5% (w/v) Carboxymethylcellulose in water solution was then added dropwise with continuous vortex mixing until a uniform suspension was obtained. The final volume was then made up to 10 mL with 0.5% (w/v) Carboxymethylcellulose in water with final strength of 3.97 mg/mL. […] This formulation was freshly prepared before the administration to animals.
Adult male Sprague Dawley Rats aged 8-10 weeks were used for the study. Fasted animals were administered with a PRX-P5-006 by oral route with a dose of 15 mg/kg body weight at dose volume of 10 mL/kg body weight. […]

[3] abbreviates: male, Sprague Dawley, rat, in vivo, oral 5 mg/kg [equivalent to PRX-002 (−)], analyte: prodrug in plasma, read-out: Oral PK Parameters Tmax, Prodrug.
Where [4] appears, read: male, Sprague Dawley, rat, in vivo, po, 5 mg/kg, oral 5 mg/kg [equivalent to PRX-002 (−)], analyte: prodrug in plasma, read-out: Oral PK Parameters Cmax, Prodrug.
The mark [5] stands for this setting: male, Sprague Dawley, rat, in vivo, oral 5 mg/kg [equivalent to PRX-002 (−)], analyte: prodrug in plasma.

SMILES strings stand for the structures. Where two headings read alike, the source gives them in different places.

Turning to `CCCCCCCCCC(=O)OCOC(=O)N(CC)C1C2CCC(C2)C1c1ccccc1` (single isomer, unassigned) [PRX-P4-002, N-(Decanoyloxymethoxycarbonyl)-(−)-N-ethyl-3-phenylbicyclo[2.2.1]heptan-2-amine], the results for the Tmax in data set [1] and in data set [2] (setting [3]) were 0 h and 0 min, respectively.

Regarding `CCN(C(=O)[C@@H](NC(=O)[C@@H](N)C(C)C)C(C)C)C1C2CCC(C2)C1c1ccccc1` (single isomer, unassigned) [PRX-P6-011, N-(Valyl-valyl)-(+)-N-ethyl-3-phenylbicyclo[2.2.1]heptan-2-amine], the “AUC% extrap of PRX-P6-011” value in data set [2] (PRX-P6-011 oral 5 mg/kg) was 23.190 ± 3.6640%. Further, the Cmax in data set [2] (setting [4]) came out at 82.2 ± 30.9 ng/mL; in data set [2] (male, Sprague-Dawley, rat, in vivo, po, 5 mg/kg, PRX-P6-011 oral 5 mg/kg, read-out: Cmax of PRX-P6-011), 82.2 ± 30.9 ng/mL. For the same compound, in data set [2] (male, Sprague Dawley, rat, in vivo, PRX-P6-011 oral 5 mg/kg b.w., 0.00 h, read-out: Plasma concentrations of PRX-P6-011), the concentration at 0 h worked out at 0 ng/mL. Also, the concentration at 0.08 h in data set [2] (male, Sprague Dawley, rat, in vivo, PRX-P6-011 oral 5 mg/kg b.w., 0.08 h, read-out: Plasma concentrations of PRX-P6-011) was found to be 75.9 ng/mL. Also, the concentration at 4 h in data set [2] (male, Sprague Dawley, rat, in vivo, PRX-P6-011 oral 5 mg/kg b.w., 4.00 h, read-out: Plasma concentrations of PRX-P6-011) amounted to 0 ng/mL. Moreover, the concentration at 6 h in data set [2] (male, Sprague Dawley, rat, in vivo, PRX-P6-011 oral 5 mg/kg b.w., 6.00 h, read-out: Plasma concentrations of PRX-P6-011) came out at 0 ng/mL. Moreover, the concentration at 24 h in data set [2] (male, Sprague Dawley, rat, in vivo, PRX-P6-011 oral 5 mg/kg b.w., 24.00 h, read-out: Plasma concentrations of PRX-P6-011) was determined as 0 ng/mL. Also, the AUC in data set [2] (setting [5]) was 44.2 ± 17.1 ng·h/mL. For the same compound, the Tmax came out at 8.4 ± 6 min in data set [2] (setting [3]) and 8.22 ± 5.88 min in data set [2] (male, Sprague-Dawley, rat, in vivo, PRX-P6-011 oral 5 mg/kg, read-out: Tmax of PRX-P6-011). Besides, the AUC(0-inf) in data set [2] (male, Sprague-Dawley, rat, in vivo, po, 5 mg/kg, PRX-P6-011 oral 5 mg/kg, read-out: AUCinf of PRX-P6-011) is 57.3 ± 21.3 ng·h/mL. In addition, in data set [2] (male, Sprague-Dawley, rat, in vivo, po, 5 mg/kg, PRX-P6-011 oral 5 mg/kg, read-out: AUClast of PRX-P6-011), the AUC(0-t) was determined as 44.2 ± 17.1 ng·h/mL. Also, in data set [2] (male, Sprague-Dawley, rat, in vivo, po, 5 mg/kg, PRX-P6-011 oral 5 mg/kg, read-out: MRTlast of PRX-P6-011), the MRT last worked out at 34.5 ± 2.22 min. The half-life in data set [2] (male, Sprague-Dawley, rat, in vivo, po, 5 mg/kg, PRX-P6-011 oral 5 mg/kg, read-out: T1/2 of PRX-P6-011 (converted)) was 70.3 ± 12.7 min. The concentration at 0.25 h in data set [2] (male, Sprague-Dawley, rat, in vivo, PRX-P6-011 oral 5 mg/kg b.w., 0.25 h, read-out: Plasma concentrations of PRX-P6-011) is 62.8 ng/mL. Moreover, the concentration at 0.5 h in data set [2] (male, Sprague-Dawley, rat, in vivo, PRX-P6-011 oral 5 mg/kg b.w., 0.50 h, read-out: Plasma concentrations of PRX-P6-011) stood at 20.8 ng/mL. Moreover, the concentration at 1 h in data set [2] (male, Sprague-Dawley, rat, in vivo, PRX-P6-011 oral 5 mg/kg b.w., 1.00 h, read-out: Plasma concentrations of PRX-P6-011) is 13 ng/mL. Besides, the concentration at 2 h in data set [2] (male, Sprague-Dawley, rat, in vivo, PRX-P6-011 oral 5 mg/kg b.w., 2.00 h, read-out: Plasma concentrations of PRX-P6-011) worked out at 7.87 ng/mL.

Turning to `CCN(C(=O)[C@@H](N)Cc1ccccc1)C1C2CCC(C2)C1c1ccccc1` (stereo partly drawn) [PRX-P1-013, N-Phenylalanyl-(−)-N-ethyl-3-phenylbicyclo[2.2.1]heptan-2-amine], the Cmax in data set [2] (setting [4]) worked out at 307 ± 49.6 ng/mL. Also, the AUC in data set [2] (setting [5]) came out at 678 ± 101 ng·h/mL. Further, the Tmax in data set [2] (setting [3]) was 42 ± 18 min.

Turning to `CCN(C(=O)[C@@H](N)CCCCN)C1C2CCC(C2)C1c1ccccc1` (stereo partly drawn) [PRX-P1-005, N-Lysyl-(−)-N-ethyl-3-phenylbicyclo[2.2.1]heptan-2-amine], the Cmax in data set [2] (setting [4]) was found to be 32 ± 7.5 ng/mL. Also, the AUC in data set [2] (setting [5]) was determined as 42 ± 9.4 ng·h/mL. Further, in data set [2] (setting [3]), the Tmax was 30 min.

Consider `CCCCCCCCCC(=O)OC(C)OC(=O)N(CC)C1C2CCC(C2)C1c1ccccc1` (single isomer, unassigned) [PRX-P5-002, N-(1-Decanoyloxyethoxycarbonyl)-(−)-N-ethyl-3-phenylbicyclo[2.2.1]heptan-2-amine], for which the results for the Tmax in data set [1] and in data set [2] (setting [3]) were 0 h and 0 min, respectively.

As a reminder, the Tmax is the time from dosing to the highest level. A word on the Cmax: it is the maximum level reached in the sampled fluid or tissue. A word on the AUC: it is concentration integrated over time.
